Laboratory results published in PubChem BioAssay (NCI).
“And” between values parts separate entries of the source, which are not always exact repeats. Equal entries are not always repeated.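 Test compounds were applied to cells in 96-well plates for 48 hours at 5 doses. GI50 marks 50% less growth. TGI: total growth inhibition.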

Assays:
Test in all cases: DTP human tumour cell line panel, 48 h
[1] = test system: OVCAR-5 ovarian
[2] = test system: NCI-H522 lung
[3] = test system: IGROV1 ovarian
[4] = test system: SF-295 CNS
[5] = test system: MDA-MB-435
[6] = test system: SF-539 CNS
[7] = test system: T-47D breast
[8] = test system: SR leukemia
[9] = test system: OVCAR-3 ovarian
[10] = test system: SNB-19 CNS

SMILES	GI50 [1] [µM]	TGI [1]	GI50 [2] [µM]	TGI [2]	GI50 [3] [µM]	TGI [3]	GI50 [4] [µM]	TGI [4]	GI50 [5] [µM]	TGI [5]	GI50 [6] [µM]	TGI [6] [µM]	GI50 [7] [µM]	TGI [7]	GI50 [8] [µM]	TGI [8] [µM]	GI50 [9] [µM]	TGI [9]	GI50 [10] [µM]	TGI [10]
CCCCCn1ncc(-c2c(O)c(O)cc3c(O)c(-c4c(C)cc5c(-c6cnn(CCCCC)n6)c(O)c(O)cc5c4O)c(C)cc23)n1	0.222	6.57 µM	0.0984	1.07 µM	0.182	4.75 µM	0.108	4.6 µM	0.109	5.02 µM	0.135	4.06	0.0627	1.42 µM	0.201	7.27	0.0919	4.62 µM	0.115	5.26 µM
COc1cc2c(cc1OCCN1C(=O)c3cccc4cccc(c34)C1=O)N=C[C@@H]1CCCN1C2=O	23.9	18.1 µM and 49.9 µM	1.58	4.51 µM and 10.2 µM	12.4	11.6 µM and 25.6 µM	32	50 µM and > 100 µM	16	25 µM and 35.9 µM	–	17.3	18.9	28.2 µM and > 100 µM	–	> 100	14.9	13.1 µM and 28.2 µM	37.7	30.2 µM and > 100 µM
Cc1ccc2nc(NC(=O)CSC(=S)N3CCN(Cc4ccccc4)CC3)sc2c1	> 100	> 100 µM	> 100	> 100 µM	> 100	> 100 µM	> 100	> 100 µM	> 100	> 100 µM	> 100	> 100	72.3	> 100 µM	> 100	> 100	> 100	> 100 µM	> 100	> 100 µM
O=C(/C=C/c1ccccc1)c1ccc(O)c(CN2CCN(c3cc4c(cc3F)c(=O)c(C(=O)O)cn4C3CC3)CC2)c1	3.91	> 100 µM	2.42	> 100 µM	1.36	36.6 µM	2.05	26.1 µM	1.5	25.7 µM	0.465	> 100	1.77	> 100 µM	0.807	> 100	1.91	> 100 µM	0.984	> 100 µM
COc1cc([N+](=O)[O-])c(S(=O)(=O)O)cc1-n1nc(-c2ccccc2)n[n+]1-c1cc(S(=O)(=O)[O-])c([N+](=O)[O-])cc1OC	–	> 100 µM	–	> 100 µM	–	> 100 µM	–	> 100 µM	–	> 100 µM	–	> 100	–	> 100 µM	–	> 100	–	> 100 µM	–	> 100 µM
COc1ccc(S(=O)(=O)N2CCCCC2)cc1NC(=O)c1[nH]c(C)c2c1CCCCC2=O	2.53	> 100 µM	0.374	7.73 µM	1.45	44.3 µM	2.52	> 100 µM	2.49	> 100 µM	2.31	> 100	1.41	46.9 µM	0.762	> 100	2.64	> 100 µM	3.8	> 100 µM
C=C(C)[C@@H]1CC[C@]2(C)[C@H](CC=C3[C@@H]4CC(C)(C)CC[C@]4(C(=O)OC)CC[C@]32C)[C@@]1(C)CC/C(N)=N/O	1.72	3.73 µM	1.58	4.12 µM	2.05	6.09 µM	1.79	4.01 µM	1.78	3.65 µM	1.8	3.95	2.46	9.77 µM	1.81	5.2	1.67	3.18 µM	2.21	5.73 µM
COc1cccc2c1C(=O)c1c(O)c3c(c(O)c1C2=O)C[C@@](O)(C(=O)COC(=O)c1cccnc1)C[C@@H]3OC1CC(N)C(O)C(C)O1 (stereo partly drawn)	0.335	4.53 µM	0.0574	0.217 µM	0.121	3.79 µM	0.148	2.29 µM	0.217	1 µM	0.0744	0.673	0.0982	2.64 µM	0.0173	2.4	0.287	2.52 µM	0.0691	2.65 µM
